Values quoted from earlier work, collected in US20090176850A1, “Novel 2-Amino-Imidazole-4-One Compounds And Their Use In The Manufacture Of A Medicament To Be Used In The Treatment Of Cognitive Impairment, Alzheimer's Disease, Neurodegeneration And Dementia” (ASTRAZENECA AB, priority 2005, published 2009).
Non-standard residues stand in square brackets, D forms with d. Residues, ends and D or L forms follow the SMILES beside them. *: point of attachment. Sta = CC(C)C[C@H](N)[C@@H](O)CC(=O)O; Isovaleryl = CC(C)CC(=O)*

Target: BACE (Homo sapiens, UniProt P56817)
Sequence (P56817 46-501): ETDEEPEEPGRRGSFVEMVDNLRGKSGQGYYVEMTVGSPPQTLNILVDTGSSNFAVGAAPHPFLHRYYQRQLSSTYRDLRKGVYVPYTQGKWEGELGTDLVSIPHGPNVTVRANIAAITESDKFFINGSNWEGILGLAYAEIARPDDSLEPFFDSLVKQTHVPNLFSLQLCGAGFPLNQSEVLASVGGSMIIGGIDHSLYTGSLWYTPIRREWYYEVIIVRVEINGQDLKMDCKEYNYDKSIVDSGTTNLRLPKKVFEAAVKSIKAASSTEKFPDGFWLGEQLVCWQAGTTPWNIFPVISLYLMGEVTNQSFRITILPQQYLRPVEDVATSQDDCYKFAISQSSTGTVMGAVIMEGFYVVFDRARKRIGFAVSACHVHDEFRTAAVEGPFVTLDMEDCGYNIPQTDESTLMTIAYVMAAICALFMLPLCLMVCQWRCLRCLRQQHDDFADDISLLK
Conditions: Vassar et al, 1999

inhibition of BACE: inhibited weakly
Compound: CC(C)CC(=O)N[C@H](C(=O)N[C@H](C(=O)N[C@@H](CC(C)C)[C@@H](O)CC(=O)N[C@@H](C)C(=O)N[C@@H](CC(C)C)[C@@H](O)CC(=O)O)C(C)C)C(C)C [pepstatin] (Isovaleryl-VV[Sta]A[Sta]-OH)
